Experimental findings from patent US20240150293A1, “SPIROCYCLOHEXANE DERIVATIVES, PHARMACEUTICAL COMPOSITIONS CONTAINING THEM AND THEIR USES AS ANTI-APOPTOTIC INHIBITORS” (LES LABORATOIRES SERVIER, priority 2021, published 2024) are described below.

Each structure is given as a SMILES string. Where two headings read alike, the source gives them in different places.

One test deals with NCI-H929 cell lines. As to the kind of experiment: In vitro cytotoxicity, CellTiter-Glo (CTG) assay (Example B, Method B). The class given is cell-based. The conditions noted are these: NCI-H929 cells, 48 h incubation, read-out: C50. In a few lines: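 ATP-based luminescence (CellTiter-Glo) after 48 h incubation at 37° C., 5% CO2 gave NCI-H929 viability. Eleven concentrations tested, highest final 30 μM, dispensed acoustically from 10 mM DMSO stocks; C50 defined as concentration reaching 50% viability.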
(In ATP-based viability assays light output follows the ATP content of the culture.)

The target in test [1] is Cy5-labelled Mcl1 (amino acids 171-321) C286S protein (UniProtKB Q07820) (Homo sapiens (Human), UniProt Q07820, C286S). Kind of test: Inhibition of Mcl-1 by the fluorescence quenching assay (Example A, Method B). The class given is binding. In a few lines:
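Eleven-point compound series incubated 2 h at room temperature with 1 nM Cy5-tagged protein and quencher-labelled PUMA peptide at 10, 20 or 400 nM in HEPES/NaCl/Tween 20, pH 7.4, 5% DMSO. IC50 for 50% fluorescence increase by 4-parameter fit, then Ki derived (complete cKi or estimated eKi).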

Cy5-labelled Mcl1 (amino acids 171-321) C286S protein, sequence (Q07820 171-321 C286S): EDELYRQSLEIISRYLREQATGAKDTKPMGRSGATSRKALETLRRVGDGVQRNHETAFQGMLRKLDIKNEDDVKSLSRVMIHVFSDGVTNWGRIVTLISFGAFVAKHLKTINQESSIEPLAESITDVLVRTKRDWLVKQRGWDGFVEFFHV

Take `CC[C@@H]1COc2cc3c(cc2O1)C[C@H](C[C@@H](C)COc1ccnc2c1[C@H](C)CCC2)[C@]31CC[C@](Nc2cccc(Cl)c2)(C(=O)O)CC1` [Example 980, (1r,2′R,4S,7′S)-4-(3-chloroanilino)-2′-ethyl-7′-[(2R)-2-methyl-3-{[(5R)-5-methyl-5,6,7,8-tetrahydroquinolin-4-yl]oxy}propyl]-2′,3′,7′,8′-tetrahydrospiro[cyclohexane-1,6′-indeno[5,6-b][1,4]dioxine]-4-carboxylic acid]: in the test on NCI-H929 cell lines (Homo sapiens, NCI-H929, 48 h), the IC50 was 142 nM. In test [1], the inhibition constant (Ki) stood at 0.102 nM.

For `C[C@@H](COc1ccnc2c1[C@H](C)CCC2)C[C@H]1Cc2c(Cl)c3c(cc2[C@]12CC[C@@](Nc1cccc(Cl)c1)(C(=O)O)CC2)OCO3` [Example 888, (1r,4S,6′S)-8′-chloro-4-(3-chloroanilino)-6′-[(2R)-2-methyl-3-{[(5R)-5-methyl-5,6,7,8-tetrahydroquinolin-4-yl]oxy}propyl]-6′,7′-dihydro-2′H-spiro[cyclohexane-1,5′-indeno[5,6-d][1,3]dioxole]-4-carboxylic acid], in the test with NCI-H929 cell lines (Homo sapiens, NCI-H929, 48 h), the IC50 worked out at 92.5 nM. Also, the Ki in test [1] is 0.25 nM.

On to `C[C@@H](COc1ccnc2c1[C@H](C)CCC2)C[C@H]1Cc2cc3c(cc2[C@]12CC[C@@](Nc1cccc(Cl)c1)(C(=O)OCCN(C)C)CC2)OCO3` [Example 935, 2-(dimethylamino)ethyl (1r,4S,6′S)-4-(3-chloroanilino)-6′-[(2R)-2-methyl-3-{[(5R)-5-methyl-5,6,7,8-tetrahydroquinolin-4-yl]oxy}propyl]-6′,7′-dihydro-2′H-spiro[cyclohexane-1,5′-indeno[5,6-d][1,3]dioxole]-4-carboxylate], for which the IC50 with NCI-H929 cell lines (Homo sapiens, NCI-H929, 48 h) was 1900 nM. In addition, the Ki in test [1] was determined as 5.46 nM.

Turning to `C[C@@H](COc1ccnc2c1[C@H](C)CCC2)C[C@H]1Cc2cc3c(cc2[C@]12CC[C@@](Nc1cccc(Cl)c1)(C(=O)O)CC2)OCCCCO3` [Example 836, (1r,4S,9′S)-4-(3-chloroanilino)-9′-[(2R)-2-methyl-3-{[(5R)-5-methyl-5,6,7,8-tetrahydroquinolin-4-yl]oxy}propyl]-2′,3′,4′,5′,9′,10′-hexahydrospiro[cyclohexane-1,8′-indeno[5,6-b][1,4]dioxocine]-4-carboxylic acid], the IC50 in the test on NCI-H929 cell lines (Homo sapiens, NCI-H929, 48 h) was 106 nM. Further, the Ki in test [1] turned out to be 0.0472 nM.

With `CC(c1ccc(O)cc1)c1ccc2c(c1)[C@]1(CC[C@@](Nc3cccc(Cl)c3)(C(=O)O)CC1)[C@@H](C[C@@H](C)COc1ccnc3c1[C@H](C)CCC3)C2` (stereo partly drawn) [Example 885, (1r,2′S,4S)-4-(3-chloroanilino)-6′-[1-(4-hydroxyphenyl)ethyl]-2′-[(2R)-2-methyl-3-{[(5R)-5-methyl-5,6,7,8-tetrahydroquinolin-4-yl]oxy}propyl]-2′,3′-dihydrospiro[cyclohexane-1,1′-indene]-4-carboxylic acid], the IC50 in the test with NCI-H929 cell lines (Homo sapiens, NCI-H929, 48 h) amounted to 341 nM. Moreover, the inhibition constant Ki in test [1] was found to be 2.03 nM.

Turning to `CC(=O)OC(C)OC(=O)[C@]1(Nc2cccc(Cl)c2)CC[C@@]2(CC1)c1cc3c(cc1C[C@@H]2C[C@@H](C)COc1ccnc2c1[C@H](C)CCC2)OCO3` (stereo partly drawn) [Example 939, 1-(acetyloxy)ethyl (1r,4S,6′S)-4-(3-chloroanilino)-6′-[(2R)-2-methyl-3-{[(5R)-5-methyl-5,6,7,8-tetrahydroquinolin-4-yl]oxy}propyl]-6′,7′-dihydro-2′H-spiro[cyclohexane-1,5′-indeno[5,6-d][1,3]dioxole]-4-carboxylate], the IC50 with NCI-H929 cell lines (Homo sapiens, NCI-H929, 48 h) turned out to be 157 nM. In test [1], the Ki was determined as 1.7 nM.

With `Cc1c(Cl)cccc1N[C@]1(C(=O)O)CC[C@]2(CC1)c1cc3c(cc1CN2C[C@@H](C)COc1ccnc2c1[C@H](C)CCC2)OCO3` [Example 49, (1s,4S)-4-(3-chloro-2-methylanilino)-6′-[(2R)-2-methyl-3-{[(5R)-5-methyl-5,6,7,8-tetrahydroquinolin-4-yl]oxy}propyl]-6′,7′-dihydro-2′H-spiro[cyclohexane-1,5′-[1,3]dioxolo[4,5-f]isoindole]-4-carboxylic acid], the IC50 with NCI-H929 cell lines (Homo sapiens, NCI-H929, 48 h) was 242 nM. In test [1] (Ki determined from IC50), the Ki amounted to 0.31 nM.

Take `CC(C)[C@@H]1CCOc2cc3c(cc2O1)C[C@H](C[C@@H](C)COc1ccnc2c1[C@H](C)CCC2)[C@]31CC[C@](Nc2cccc(Cl)c2)(C(=O)O)CC1` [Example 997, (1r,2′S,4S,8′S)-4-(3-chloroanilino)-8′-[(2R)-2-methyl-3-{[(5R)-5-methyl-5,6,7,8-tetrahydroquinolin-4-yl]oxy}propyl]-2′-(propan-2-yl)-3′,4′,8′,9′-tetrahydro-2′H-spiro[cyclohexane-1,7′-indeno[5,6-b][1,4]dioxepine]-4-carboxylic acid]: the IC50 in the test with NCI-H929 cell lines (Homo sapiens, NCI-H929, 48 h) was found to be 965 nM. For the same compound, the Ki in test [1] was 4.15 nM.

Take `CCOc1ccc2c(c1)[C@]1(CC[C@@](Nc3ccc(F)c(Cl)c3)(C(=O)O)CC1)[C@@H](C[C@@H](C)COc1ccnc3c1[C@H](C)CCC3)C2` [Example 785, (1r,2′S,4S)-4-(3-chloro-4-fluoroanilino)-6′-ethoxy-2′-[(2R)-2-methyl-3-{[(5R)-5-methyl-5,6,7,8-tetrahydroquinolin-4-yl]oxy}propyl]-2′,3′-dihydrospiro[cyclohexane-1,1′-indene]-4-carboxylic acid]: in the test on NCI-H929 cell lines (Homo sapiens, NCI-H929, 48 h), the IC50 came to 61 nM. Further, the Ki in test [1] was determined as 0.122 nM.

On to `COc1cccc(-c2ccc3c(c2)[C@]2(CC[C@@](Nc4cccc(Cl)c4)(C(=O)O)CC2)[C@@H](C[C@@H](C)COc2ccnc4c2[C@H](C)CCC4)C3)c1` [Example 877, (1r,2′S,4S)-4-(3-chloroanilino)-6′-(3-methoxyphenyl)-2′-[(2R)-2-methyl-3-{[(5R)-5-methyl-5,6,7,8-tetrahydroquinolin-4-yl]oxy}propyl]-2′,3′-dihydrospiro[cyclohexane-1,1′-indene]-4-carboxylic acid], for which, in the test on NCI-H929 cell lines (Homo sapiens, NCI-H929, 48 h), the IC50 came out at 505 nM. Besides, in test [1], the Ki came out at 0.642 nM.

Turning to `C[C@@H](COc1ccnc2c1[C@H](C)CCC2)C[C@H]1Cc2cccc(F)c2[C@]12CC[C@@](Nc1cccc(Cl)c1)(C(=O)O)CC2` [Example 763, (1r,2′S,4S)-4-(3-chloroanilino)-7′-fluoro-2′-[(2R)-2-methyl-3-{[(5R)-5-methyl-5,6,7,8-tetrahydroquinolin-4-yl]oxy}propyl]-2′,3′-dihydrospiro[cyclohexane-1,1′-indene]-4-carboxylic acid], in the test on NCI-H929 cell lines (Homo sapiens, NCI-H929, 48 h), the IC50 came out at 118 nM. In addition, the Ki in test [1] was 0.0813 nM.

As for `C[C@@H](COc1ccnc2c1[C@H](C)CCC2)C[C@@H]1Cc2ccc(-c3ccc[nH]3)cc2[C@]12CC[C@@](Nc1cccc(Cl)c1)(C(=O)O)CC2` [Example 880, (1r,2′R,4R)-4-(3-chloroanilino)-2′-[(2R)-2-methyl-3-{[(5R)-5-methyl-5,6,7,8-tetrahydroquinolin-4-yl]oxy}propyl]-6′-(1H-pyrrol-2-yl)-2′,3′-dihydrospiro[cyclohexane-1,1′-indene]-4-carboxylic acid], in the test with NCI-H929 cell lines (Homo sapiens, NCI-H929, 48 h), the IC50 was 829 nM. Further, the Ki in test [1] was 1.23 nM.

As for `CC(O)c1ccc2c(c1)[C@]1(CC[C@@](Nc3cccc(Cl)c3)(C(=O)O)CC1)[C@@H](C[C@@H](C)COc1ccnc3c1[C@H](C)CCC3)C2` (single isomer, unassigned) [Example 860], in the test on NCI-H929 cell lines, the IC50 came to 93 nM. Moreover, the Ki in test [1] is 0.0188 nM.

In the case of `CC(=O)c1cc(C)c2c(c1)[C@]1(CC[C@@](Nc3cccc(Cl)c3)(C(=O)O)CC1)C(C[C@@H](C)COc1ccnc3c1[C@H](C)CCC3)C2` (single isomer, unassigned) [Example 758], the IC50 in the test with NCI-H929 cell lines stood at 97.2 nM. Besides, in test [1], the Ki is 1.19 nM.

`COCCCOc1cc2c(cc1Cl)C[C@H](C[C@@H](C)COc1ccnc3c1[C@H](C)CCC3)[C@]21CC[C@](Nc2cccc(Cl)c2)(C(=O)O)CC1` [Example 823, (1r,2′S,4S)-5′-chloro-4-(3-chloroanilino)-6′-(3-methoxypropoxy)-2′-[(2R)-2-methyl-3-{[(5R)-5-methyl-5,6,7,8-tetrahydroquinolin-4-yl]oxy}propyl]-2′,3′-dihydrospiro[cyclohexane-1,1′-indene]-4-carboxylic acid]: the IC50 with NCI-H929 cell lines (Homo sapiens, NCI-H929, 48 h) came to 128 nM. Besides, in test [1], the Ki is 0.108 nM.

Take `C[C@@H](COc1ccnc2c1[C@H](C)CCC2)C[C@H]1Cc2cc3c(cc2[C@]12CC[C@@](Nc1cccc(Cl)c1)(C(=O)OCC(F)(F)F)CC2)OCO3` [Example 932, 2,2,2-trifluoroethyl (1r,4S,6′S)-4-(3-chloroanilino)-6′-[(2R)-2-methyl-3-{[(5R)-5-methyl-5,6,7,8-tetrahydroquinolin-4-yl]oxy}propyl]-6′,7′-dihydro-2′H-spiro[cyclohexane-1,5′-indeno[5,6-d][1,3]dioxole]-4-carboxylate]: the IC50 in the test on NCI-H929 cell lines (Homo sapiens, NCI-H929, 48 h) stood at 13600 nM. Further, in test [1], the Ki came to 213 nM.

As for `C[C@@H](COc1ccnc2c1[C@H](C)CCC2)C[C@H]1Cc2cc(Cl)ccc2[C@]12CC[C@@](Nc1cccc(Cl)c1)(C(=O)O)CC2` [Example 778, (1r,2′S,4S)-5′-chloro-4-(3-chloroanilino)-2′-[(2R)-2-methyl-3-{[(5R)-5-methyl-5,6,7,8-tetrahydroquinolin-4-yl]oxy}propyl]-2′,3′-dihydrospiro[cyclohexane-1,1′-indene]-4-carboxylic acid], the IC50 in the test with NCI-H929 cell lines (Homo sapiens, NCI-H929, 48 h) amounted to 67.2 nM. Also, in test [1], the Ki was found to be 0.177 nM.

For `C[C@@H](COc1ccnc2c1[C@H](C)CCC2)C[C@H]1Cc2cc3c(cc2[C@]12CC[C@@](Nc1cccc(Cl)c1)(C(=O)OCC(=O)N(C)C)CC2)OCO3` [Example 936, 2-(dimethylamino)-2-oxoethyl (1r,4S,6′S)-4-(3-chloroanilino)-6′-[(2R)-2-methyl-3-{[(5R)-5-methyl-5,6,7,8-tetrahydroquinolin-4-yl]oxy}propyl]-6′,7′-dihydro-2′H-spiro[cyclohexane-1,5′-indeno[5,6-d][1,3]dioxole]-4-carboxylate], the IC50 in the test on NCI-H929 cell lines (Homo sapiens, NCI-H929, 48 h) turned out to be 6840 nM. Besides, the inhibition constant (Ki) in test [1] came to 142 nM.

Usually Ki stands for the dissociation constant of the complex between target and ligand, obtained from inhibition or displacement.
